Assay results from US7807781B2, “Inhibitors of serine protease activity and their use in methods and compositions for treatment of viral infections” (The Regents of the University of Colorado, priority 1999, dated 2010).
Where two headings read alike, the source gives them in different places.

Assays:
[1] = tested on: HIV-1 production in U1 cells; experiment: U1 monocytic cell assay, TNF-induced HIV-1 p24 antigen; format: cell-based; details: for TNF-induced p24 antigen: 3.0 ng/ml TNF
[2] = tested on: NF-κB; experiment: IL-18-induced NF-κB expression; format: cell-based; details: compared with IL-18 alone (lane 4)
[3] = tested on: HIV-1 production in U1 cells; experiment: U1 monocytic cell assay, IL-18-induced HIV-1 p24 antigen; format: cell-based; details: for p24 production: 0.5 nM IL-18, 48 hr
Source text: U1 monocytic cell assay. U1 cells are obtained from the AIDS Research and Reference Reagent Program, National Institute of Allergy and Infectious Diseases, NIH. U1 cells are maintained in T-175 polystyrene flasks (Falcon, Becton Dickinson, Franklin Lakes, N.J.) in medium and used when in log phase growth. Cells are counted in a hemacytometer, examined for viability by Trypan blue exclusion (>95% for all experiments) and resuspended in fresh medium at 2×10^6 per ml. Two-hundred fifty […] are added to wells of 24-well polystyrene tissue culture plates (Falcon), followed by the addition of medium or AAT to produce the final concentration to be tested in a volume of […]. After 1.0 hr of incubation (37° C., 5% CO2), 50 ml of medium (control) or stimulus diluted in medium are added to wells to produce the final concentration of stimulus to be tested. The final culture volumes are […] and contained 1×10^6 cells per ml. After 48 hr of incubation (37° C. and 5% CO2) 50 ml of 10% (vol/vol) Triton-X-100 (Fisher Scientific, Fair Lawn, N.J.) is added to each culture (final concentration of 1% vol/vol), and cultures are frozen and thawed once. This is followed by assay for HIV-1 p24 antigen by ELISA with a lower limit of detection of 31 pg/ml (NCI-Frederick Cancer Research and Development Center, Frederick, Md.). The disruption of cells due to the addition of Triton-X-100 and the freeze-thaw cycle produced cell lysates and enabled assessment of total (secreted and cell-associated) production of p24 antigen.
Data are presented as means±SEM. Group means are compared by ANOVA using Fisher's least significant difference. For data expressed as percent change, the values for p24 in control cultures (medium alone) are subtracted from those for each culture-containing stimulus. The p24 concentrations in cultures conducted in the presence of stimulus alone are set at 100%. Percent p24 in cultures containing stimulus and AAT are calculated by dividing the measured p24 by that present in cultures containing stimulus alone. The resultant fraction is expressed as a percent.
The U1 cell line is derived from human monocytic U937 cells into which 2 copies of HIV-1 provirus are incorporated into host genome. Exposing U1 cells to pro-inflammatory cytokines such as IL-18, IL-1, IL-6 and TNF, phorbol esters or hyperosmolarity results in the induction of HIV-1 as assessed by p24 antigen. Stimulation of U1 cells with 0.5 nM IL-18 induced large amounts of p24 antigen after 48 hr of incubation in 3 separate experiments. U1 cells cultured in medium alone (control) contained a mean of 41.3±11.5 pg/ml p24 antigen, which is increased 150-fold to 6,235±1,775 pg/ml p24 following stimulation with IL-18. […] At 1, 2 and 3 mg/ml AAT, the percent reductions observed compared to stimulation with IL-18 alone are 65±1.8, 93±3.0 and 98±1%, respectively.

[4] = tested on: HIV-1 production in U1 cells; experiment: U1 monocytic cell assay, IL-6-induced HIV-1 p24 antigen; format: cell-based; details: for p24 antigen: 100 ng/ml IL-6
[5] = tested on: lymphocyte-tropic HIV-1 strain A018A in PBMC; format: cell-based
[6] = tested on: HIV-1 strain A018A in MAGI-CCR-5 cells; format: cell-based; details: for mean positive cell count: +HIV-1; for inhibition of MAGI-CCR-5 cell early infection events: compared to HIV-1 alone
[7] = tested on: U1 cells; experiment: U1 cell proliferation and viability (hemacytometer, trypan blue exclusion); format: cell-based, human; details: 5 mg/ml AAT, 48 hrs
Procedure: To evaluate the effect of AAT on U1 cell proliferation and viability, 3 experiments are performed in the presence or absence of 5 mg/ml AAT. U1 cells are added at 1×10^6 cells per ml and cultured for 48 hrs. Following incubation, cells are quantified using a hemacytometer. The mean±SEM cell concentrations in control and AAT-containing cultures are 2.5×10^6±0.5×10^6 and 2.4×10^6±0.3×10^6 respectively. […] For all cultures, cell viability by trypan blue exclusion is >95%. The lack of toxicity is illustrated in FIG. 13.

Q: What does the source list for “AAT: Alpha-1-antitrypsin purified from the blood of healthy volunteers to single-band homogeneity”?
A: TNF-induced p24 antigen ([1]; AAT 0.1 mg/ml): 16,405±8,449 pg/ml; TNF-induced p24 antigen ([1]; AAT 0.5 mg/ml): 16,863±7,718 pg/ml; TNF-induced p24 antigen ([1]; AAT 1 mg/ml): 15,328±7,129 pg/ml; TNF-induced p24 antigen ([1]; AAT 2 mg/ml): 12,566±4,981 pg/ml; TNF-induced p24 antigen ([1]; AAT 3 mg/ml): 9,341±2,730 pg/ml; TNF-induced p24 antigen ([1]; AAT 4 mg/ml): 9,091±3,436 pg/ml; TNF-induced p24 antigen ([1]; AAT 5 mg/ml): 6,868±2,737 pg/ml; mean percent reduction in TNF-induced p24 antigen ([1]; AAT 3 mg/ml): 56%; mean percent reduction in TNF-induced p24 antigen ([1]; AAT 4 mg/ml): 60%; mean percent reduction in TNF-induced p24 antigen ([1]; AAT 5 mg/ml): 73%; IL-18-induced NF-κB expression [2]: reduced; p24 production ([3]; AAT 0.1 mg/ml): 6,879±207 pg/ml; p24 production ([3]; AAT 0.5 mg/ml): 3,687±968 pg/ml; p24 production ([3]; AAT 1 mg/ml): 2,029±625 pg/ml; p24 production ([3]; AAT 2 mg/ml): 452 ± 209 pg/mL; p24 production ([3]; AAT 3 mg/ml): 179 ± 79 pg/mL; percent reduction of p24 compared to IL-18 alone ([3]; AAT 1 mg/ml): 65±1.8%; percent reduction of p24 compared to IL-18 alone ([3]; AAT 2 mg/ml): 93±3.0%; percent reduction of p24 compared to IL-18 alone ([3]; AAT 3 mg/ml): 98±1%; range of inhibition of HIV-1 production in U1 cells ([3]; all stimuli tested (IL-18, IL-6, TNF, LPS, hyperosmolarity)): 73-100%; p24 antigen ([4]; AAT 0.1 mg/ml): 6,228±2,129 pg/ml; p24 antigen ([4]; AAT 0.5 mg/ml): 3,992±1,987 pg/ml; p24 antigen ([4]; AAT 1 mg/ml): 3,850±1,943 pg/ml; p24 antigen ([4]; AAT 2 mg/ml): 2,597±1,253 pg/ml; p24 antigen ([4]; AAT 3 mg/ml): 2,155±1,085 pg/ml; p24 antigen ([4]; AAT 4 mg/ml): 1,838±881 pg/ml; p24 antigen ([4]; AAT 5 mg/ml): 1,213±668 pg/ml; mean percent reduction of IL-6-induced p24 ([4]; AAT 3 mg/ml): 80%; mean percent reduction of IL-6-induced p24 ([4]; AAT 4 mg/ml): 88%; mean percent reduction of IL-6-induced p24 ([4]; AAT 5 mg/ml): 100%; effect on p24 antigen production of AAT present during infection only ([5]; AAT removed, 4 days of culture in medium alone): did not affect; p24 produced ([5]; PBMC infected in absence of AAT, 4 days with AAT 0.1 mg/ml): 8,687±1,304 pg/ml; p24 produced ([5]; PBMC infected in absence of AAT, 4 days with AAT 0.5 mg/ml): 7,392±1,299 pg/ml; p24 produced ([5]; PBMC infected in absence of AAT, 4 days with AAT 1.0 mg/ml): 6,613 pg/ml; p24 produced ([5]; PBMC infected in absence of AAT, 4 days with AAT 2.0 mg/ml): 6,258±1,772 pg/ml; p24 produced ([5]; PBMC infected in absence of AAT, 4 days with AAT 3.0 mg/ml): 5,275±316 pg/ml; p24 produced ([5]; PBMC infected in absence of AAT, 4 days with AAT 4.0 mg/ml): 4,725±101 pg/ml; p24 produced ([5]; PBMC infected in absence of AAT, 4 days with AAT 5.0 mg/ml): 3,508 pg/ml; reduction in p24 antigen compared to control cultures ([5]; PBMC infected in absence of AAT, AAT 4.0 mg/ml): 22%; reduction in p24 antigen compared to control cultures ([5]; PBMC infected in absence of AAT, AAT 5.0 mg/ml): 46%; p24 produced ([5]; PBMC infected in presence of 3 mg/ml AAT, 4 days with AAT 0.1 mg/ml): 6,620±2,026 pg/ml; p24 produced ([5]; PBMC infected in presence of 3 mg/ml AAT, 4 days with AAT 0.5 mg/ml): 6,047±1,322 pg/ml; p24 produced ([5]; PBMC infected in presence of 3 mg/ml AAT, 4 days with AAT 1.0 mg/ml): 6,014±2,055 pg/ml; p24 produced ([5]; PBMC infected in presence of 3 mg/ml AAT, 4 days with AAT 2.0 mg/ml): 2,516±345 pg/ml; p24 produced ([5]; PBMC infected in presence of 3 mg/ml AAT, 4 days with AAT 3.0 mg/ml): 3,360±371 pg/ml; p24 produced ([5]; PBMC infected in presence of 3 mg/ml AAT, 4 days with AAT 4.0 mg/ml): 2,743±316 pg/ml; p24 produced ([5]; PBMC infected in presence of 3 mg/ml AAT, 4 days with AAT 5.0 mg/ml): 2,713±645 pg/ml; reduction in p24 production compared to control cultures ([5]; PBMC infected in presence of 3 mg/ml AAT, AAT 2.0 mg/ml): 71%; reduction in p24 production compared to control cultures ([5]; PBMC infected in presence of 3 mg/ml AAT, AAT 3.0 mg/ml): 61%; reduction in p24 production compared to control cultures ([5]; PBMC infected in presence of 3 mg/ml AAT, AAT 4.0 mg/ml): 65%; reduction in p24 production compared to control cultures ([5]; PBMC infected in presence of 3 mg/ml AAT, AAT 5.0 mg/ml): 67%; Maximal p24 reduction in PBMC exposed to AAT for 4 days ([5]; cells infected in the absence of AAT): 46%; Maximal p24 reduction in PBMC exposed to AAT for 4 days ([5]; cells infected in the presence of AAT): 71%; mean positive cell count ([6]; AAT 0.1 mg/ml): 74±13; mean positive cell count ([6]; AAT 1.0 mg/ml): 75±17; mean positive cell count ([6]; AAT 3.0 mg/ml): 45±12; mean positive cell count ([6]; AAT 4.0 mg/ml): 28±9; mean positive cell count ([6]; AAT 5.0 mg/ml): 21±12; inhibition of MAGI-CCR-5 cell early infection events ([6]; AAT 2.0 mg/ml): 23%; inhibition of MAGI-CCR-5 cell early infection events ([6]; AAT 3.0 mg/ml): 41%; inhibition of MAGI-CCR-5 cell early infection events ([6]; AAT 4.0 mg/ml): 66%; inhibition of MAGI-CCR-5 cell early infection events ([6]; AAT 5.0 mg/ml): 76%; cell viability by trypan blue exclusion [7]: > 95%; mean±SEM cell concentration after culture ([7]; 1×10^6 cells per ml added initially): 2.4×10^6±0.3×10^6 cells per ml
